In PubChem BioAssay AID1259411 (Chemical Carcinogenesis Research Information System (CCRIS), 2018):
Active and inactive are the calls of the source. How the calls were made is not given here.

System: rodent carcinogenicity bioassays, tumor incidence
Experiment: CCRIS carcinogenicity studies
Source text: The CCRIS database contains chemical records with carcinogenicity, mutagenicity, tumor promotion, and tumor inhibition test results. It was developed by the National Cancer Institute (NCI). Data are derived from studies cited in primary journals, current awareness tools, NCI reports, and other sources. Test results have been reviewed by experts in carcinogenesis and mutagenesis.
CCRIS provides historical information from the years 1985 - 2011. It is no longer updated.
This is an archive assay for CCRIS carcinogenicity studies.

Cn1c(N)nc2ncc(-c3ccccc3)cc21
carcinogen call (Species: HAMSTER, Strain/Sex: RAPID ACETYLATOR CONGENIC/MALE, Route: ORAL, Dose: 75 MG/KG BW/DOSE BY GAVAGE, 2 DOSES/WK FOR 4 WK FOLLOWED BY 1 DOSE/WK FOR 1 WK AND 1 DOSE/2 WK FOR 4 WK, FOLLOWED BY A H): inactive; negative
carcinogen call (Species: HAMSTER, Strain/Sex: SLOW ACETYLATOR CONGENIC/MALE, Route: ORAL, Dose: 75 MG/KG BW/DOSE BY GAVAGE, 2 DOSES/WK FOR 4 WK FOLLOWED BY 1 DOSE/WK FOR 1 WK AND 1 DOSE/2 WK FOR 4 WK, FOLLOWED BY A H): inactive; negative
carcinogen call (Species: MOUSE, Strain/Sex: B6C3F1/MALE, Route: INTRAPERITONEAL, Dose: 0, 0.625 UMOL IN 35 µL DMSO ON D 1, 8, AND 15 AFTER BIRTH (STUDY DURATION: 8 MO)): inactive; negative
carcinogen call (Species: MOUSE, Strain/Sex: B6C3F1/MALE, Route: INTRAPERITONEAL, Dose: 0, 0.625 UMOL IN 35 µL DMSO ON D 1, 8, AND 15 AFTER BIRTH (STUDY DURATION: 12 MO), Tumor Site: Type of Lesion: LIVER: HEPATOCELLULAR ADENOMA): active; positive
carcinogen call (Species: MOUSE, Strain/Sex: B6C3F1/MALE, Route: INTRAPERITONEAL, Dose: 0, 1.25 UMOL IN 35 µL DMSO ON D 1, 8, AND 15 AFTER BIRTH (STUDY DURATION: 8 MO), Tumor Site: Type of Lesion: LIVER: HEPATOCELLULAR ADENOMA): active; positive
carcinogen call (Species: MOUSE, Strain/Sex: B6C3F1/MALE, Route: INTRAPERITONEAL, Dose: 0, 1.25 UMOL IN 35 µL DMSO ON D 1, 8, AND 15 AFTER BIRTH (STUDY DURATION: 12 MO), Tumor Site: Type of Lesion: LIVER: HEPATOCELLULAR ADENOMA, HEPATOCELLULAR CARCINOMA): active; positive
carcinogen call (Species: MOUSE, Strain/Sex: C57/FEMALE, Route: ORAL, Dose: 0, 300 PPM IN HIGH FAT DIET FOR 40 WK, FOLLOWED BY CONTINUOUS FEEDING OF HIGH FAT DIET UNTIL STUDY TERMINATION (STUDY DU, Tumor Site: Type of Lesion: SMALL INTESTINE: ADENOCARCINOMAS OR ADENOMAS): active; positive
carcinogen call (Species: MOUSE, Strain/Sex: C57/MALE, Route: ORAL, Dose: 0, 300 PPM IN HIGH FAT DIET FOR 40 WK, FOLLOWED BY CONTINUOUS FEEDING OF HIGH FAT DIET UNTIL STUDY TERMINATION (STUDY DU, Tumor Site: Type of Lesion: SMALL INTESTINE: ADENOCARCINOMAS OR ADENOMAS, LYMPHATIC SYSTEM: LYMPHOMA): active; positive
carcinogen call (Species: MOUSE, Strain/Sex: CDF1/FEMALE, Route: ORAL, Dose: 0, 0.04% IN THE DIET FOR DURATION OF STUDY (STUDY DURATION: 579 D), Tumor Site: Type of Lesion: HEMATOPOIETIC SYSTEM: LYMPHOMA): active; positive
carcinogen call (Species: MOUSE, Strain/Sex: CDF1/MALE, Route: ORAL, Dose: 0, 0.04% IN THE DIET FOR DURATION OF STUDY (STUDY DURATION: 579 D), Tumor Site: Type of Lesion: HEMATOPOIETIC SYSTEM: LYMPHOMA): active; positive
carcinogen call (Species: MOUSE, Strain/Sex: EU-PIM-1/FEMALE, Route: ORAL, Dose: 0, 0.03% IN DIET FOR 31 WK (STUDY DURATION: 31 WK)): inactive; negative
carcinogen call (Species: MOUSE, Strain/Sex: EU-PIM-1/MALE, Route: ORAL, Dose: 0, 0.03% IN DIET FOR 31 WK (STUDY DURATION: 31 WK)): inactive; negative
carcinogen call (Species: MOUSE, Strain/Sex: NON-TRANSGENIC WILD-TYPE/FEMALE, Route: ORAL, Dose: 0, 0.03% IN DIET FOR 31 WK (STUDY DURATION: 31 WK)): inactive; negative
carcinogen call (Species: MOUSE, Strain/Sex: NON-TRANSGENIC WILD-TYPE/MALE, Route: ORAL, Dose: 0, 0.03% IN DIET FOR 31 WK (STUDY DURATION: 31 WK)): inactive; negative
carcinogen call (Species: MOUSE, Strain/Sex: TRANSGENIC EU-PIM-1/FEMALE, Route: ORAL, Dose: 0, 0.03% IN DIET FOR 31 WK (STUDY DURATION: 31 WK), Tumor Site: Type of Lesion: LYMPHATIC SYSTEM: LYMPHOMA): active; positive
carcinogen call (Species: MOUSE, Strain/Sex: TRANSGENIC EU-PIM-1/MALE, Route: ORAL, Dose: 0, 0.03% IN DIET FOR 31 WK (STUDY DURATION: 31 WK)): inactive; negative
carcinogen call (Species: MOUSE, Strain/Sex: WILD-TYPE/FEMALE, Route: ORAL, Dose: 0, 0.03% IN DIET FOR 31 WK (STUDY DURATION: 31 WK)): inactive; negative
carcinogen call (Species: MOUSE, Strain/Sex: WILD-TYPE/MALE, Route: ORAL, Dose: 0, 0.03% IN DIET FOR 31 WK (STUDY DURATION: 31 WK)): inactive; negative
carcinogen call (Species: RAT, Strain/Sex: F344/FEMALE, Route: ORAL, Dose: 0, 25, 100 PPM IN DIET FOR 104 WK (STUDY DURATION: 104 WK), Dose: 0, 25, 100 PPM IN DIET FOR 104 WK (STUDY DURATION: 104 WK), Tumor Site: Type of Lesion: MAMMARY GLAND: ADENOCARCINOMA): active; positive
carcinogen call (Species: RAT, Strain/Sex: F344/FEMALE, Route: ORAL, Dose: 0, 400 PPM IN DIET FOR 52 WK (STUDY DURATION: 52 WK), Tumor Site: Type of Lesion: MAMMARY GLAND: ADENOCARCINOMA): active; positive
carcinogen call (Species: RAT, Strain/Sex: F344/MALE, FEMALE, Route: MATERNAL MILK, Dose: 200 PPM IN DIET TO MOTHERS FROM D OF MATING TO WEANING, THEN OFFSPRING ON CONTROL DIET FOR 60 WKS (STUDY DURATION: 63 WK): inactive; negative; prostate and colon tumors not enhanced; multiplicity of aberrant crypt
carcinogen call (Species: RAT, Strain/Sex: F344/MALE, Route: ORAL, Dose: 0, 25, 100 PPM IN DIET FOR 104 WK (STUDY DURATION: 104 WK), Dose: 0, 25, 100 PPM IN DIET FOR 104 WK (STUDY DURATION: 104 WK), Tumor Site: Type of Lesion: COLON: CARCINOMA): active; positive
carcinogen call (Species: RAT, Strain/Sex: F344/MALE, Route: ORAL, Dose: 0, 100, 300 PPM IN DIET FOR 40 WK (STUDY DURATION: 40 WK), Dose: 0, 100, 300 PPM IN DIET FOR 40 WK (STUDY DURATION: 40 WK), Tumor Site: Type of Lesion: PROSTATE (VENTRAL): PROSTATIC INTRAEPITHELIAL NEOPLASIA): active; positive
carcinogen call (Species: RAT, Strain/Sex: F344/MALE, Route: ORAL, Dose: 0, 400 PPM IN DIET FOR 52 WK (STUDY DURATION: 52 WK), Tumor Site: Type of Lesion: COLON: ADENOCARCINOMA): active; positive
carcinogen call (Species: RAT, Strain/Sex: F344/MALE, Route: ORAL, Dose: 0, 400 PPM IN DIET FOR 52 WK (STUDY DURATION: 52 WK), Tumor Site: Type of Lesion: PROSTATE (VENTRAL): CARCINOMA): active; positive
carcinogen call (Species: RAT, Strain/Sex: SPRAGUE DAWLEY/FEMALE, 43 D OLD, Route: ORAL, Dose: 75 MG/DOSE, 10 DOSES GIVEN ONCE/D OVER 12 D (STUDY DURATION: 6 MO), Tumor Site: Type of Lesion: MAMMARY GLAND): active; positive (5% incidence)
carcinogen call (Species: RAT, Strain/Sex: SPRAGUE DAWLEY/FEMALE, 150 D OLD, Route: ORAL, Dose: 75 MG/DOSE, 10 DOSES GIVEN ONCE/D OVER 12 D (STUDY DURATION: 6 MO), Tumor Site: Type of Lesion: MAMMARY GLAND): inactive; negative (0% incidence)
carcinogen call (Species: RAT, Strain/Sex: SPRAGUE-DAWLEY/FEMALE, Route: ORAL, Dose: 0, 12.5, 50 PPM IN DIET FOR DURATION OF STUDY (STUDY DURATION: 48 WK), Dose: 0, 12.5, 50 PPM IN DIET FOR DURATION OF STUDY (STUDY DURATION: 48 WK), Tumor Site: Type of Lesion: MAMMARY GLAND: TUMOR): active; positive
carcinogen call (Species: RAT, Strain/Sex: SPRAGUE-DAWLEY/FEMALE, Route: ORAL, Dose: 0, 25, 100, 200 PPM IN DIET FOR 48 WK (STUDY DURATION: 48 WK), Dose: 0, 25, 100, 200 PPM IN DIET FOR 48 WK (STUDY DURATION: 48 WK), Tumor Site: Type of Lesion: MAMMARY GLAND: TUMOR): active; positive
carcinogen call (Species: RAT, Strain/Sex: SPRAGUE-DAWLEY/FEMALE, Route: ORAL, Dose: 0, 25, 100, 200 PPM IN DIET FOR DURATION OF STUDY (STUDY DURATION: 48 WK), Dose: 0, 25, 100, 200 PPM IN DIET FOR DURATION OF STUDY (STUDY DURATION: 48 WK), Tumor Site: Type of Lesion: MAMMARY GLAND: TUMOR): active; positive
carcinogen call (Species: RAT, Strain/Sex: SPRAGUE-DAWLEY/FEMALE, Route: ORAL, Dose: 0, 25, 100 PPM IN DIET FROM WEANING TO 47 WK OF AGE (STUDY DURATION: 47 WK), Dose: 0, 25, 100 PPM IN DIET FROM WEANING TO 47 WK OF AGE (STUDY DURATION: 47 WK), Tumor Site: Type of Lesion: MAMMARY GLAND: TUMOR): active; positive
carcinogen call (Species: RAT, Strain/Sex: SPRAGUE-DAWLEY/FEMALE, Route: ORAL, Dose: 0, 75 MG/KG IN 5 ML CORN OIL 1/D ON DAYS 1-5 AND 8-12 OF STUDY FOLLOWED 2 DAYS LATER BY A HIGH-FAT DIET FOR DURATION OF, Tumor Site: Type of Lesion: MAMMARY GLAND: TUMOR): active; positive
carcinogen call (Species: RAT, Strain/Sex: SPRAGUE-DAWLEY/FEMALE, Route: TRANSPLACENTAL, ORAL, Dose: 0, 100 PPM IN DIET OF MOTHERS BEGINNING 4 WK BEFORE MATING AND CONTINUING THROUGH LACTATION THEN OFFSPRING ADMINISTERED, Tumor Site: Type of Lesion: MAMMARY GLAND: TUMOR): active; positive
carcinogen call (Species: RAT, Strain/Sex: SPRAGUE-DAWLEY/MALE, Route: ORAL, Dose: 0, 25, 100 PPM IN DIET FROM WEANING TO 47 WK OF AGE (STUDY DURATION: 47 WK), Dose: 0, 25, 100 PPM IN DIET FROM WEANING TO 47 WK OF AGE (STUDY DURATION: 47 WK)): inactive; negative
carcinogen call (Species: RAT, Strain/Sex: SPRAGUE-DAWLEY/MALE, Route: TRANSPLACENTAL, ORAL, Dose: 0, 100 PPM IN DIET OF MOTHERS BEGINNING 4 WK BEFORE MATING AND CONTINUING THROUGH LACTATION THEN OFFSPRING ADMINISTERED): inactive; negative
carcinogen call (Species: RAT, Strain/Sex: STRAIN-CD/FEMALE, Route: GAVAGE, Dose: 0, 50 UMOL IN 0.5 ML TRIOCTANOIN 1/WK FOR 8 WK (STUDY DURATION: 49 WK), Tumor Site: Type of Lesion: MAMMARY GLAND: FIBROADENOMA, ADENOCARCINOMA): active; positive
